From paper PMC9610702, “Synthesis, Characterization, and Biological Evaluation of Tetrahydropyrimidines: Dual-Activity and Mechanism of Action” (Pharmaceutics, 2022)
In brackets after ≈: the same amount, converted by molar mass. Where two headings read alike, the source gives them in different places.

Tests used:
Penicillium italicum = experiment: antifungal MIC, broth tube dilution; assay type: cell-based
From the text: (§1) In this paper, the synthesis, characterization, and biological evaluation of the novel tetrahydropyrimidines—THPMs are described. THPMs are well-known for wide pharmacological activities such as antimicrobial, anticancer, antiviral, etc. This research includes obtained results of in vitro antimicrobial, anticancer, and α-glucosidase inhibitory activities of the eleven novel THPMs. An antibiotic assessment was done against five bacteria (two Gram-positive and three Gram-negative) and five fungi by determining the minimal inhibitory concentration (MIC), using the broth tube dilution method. […] The cytotoxic activity was performed on the tumor cell lines (HeLa, K562, and MDA-MB-231) and normal cells (MRC-5). The best antitumor activity was shown by compounds 4b and 4k against HeLa cell lines.
(§2) All materials and methods used for biological examination (antibacterial, antifungal, anticancer, and α-glucosidase inhibitory activities) and crystal structure determination are presented in the Supplementary Materials, File S1.

Aspergillus flavus = experiment: antifungal MIC, broth tube dilution; assay type: cell-based
From the text: as §1, §2

Aspergillus niger = experiment: antifungal MIC, broth tube dilution; assay type: cell-based
From the text: as §1, §2

Mucor mucedo = experiment: antifungal MIC, broth tube dilution; assay type: cell-based
From the text: as §1, §2

[1] = tested on: Trichophyton mentagrophytes; experiment: antifungal MIC, broth tube dilution; assay type: cell-based
From the text: as §1, §2

Escherichia coli = experiment: antibacterial MIC, broth tube dilution; assay type: cell-based
From the text: as §1, §2

Staphylococcus aureus = experiment: antibacterial MIC, broth tube dilution; assay type: cell-based
From the text: as §1, §2

Klebsiella oxytoca = experiment: antibacterial MIC, broth tube dilution; assay type: cell-based
From the text: as §1, §2

Proteus mirabilis = experiment: antibacterial MIC, broth tube dilution; assay type: cell-based; conditions: ND = not detected, read-out: MIC
From the text: as §1, §2

Bacillus subtilis = experiment: antibacterial MIC, broth tube dilution; assay type: cell-based
From the text: as §1, §2

α-glucosidase = α-glucosidase inhibitory activity; assay type: biochemical; conditions: average ± SD of two experiments
From the text: as §2

[2] = tested on: normal human lung fibroblasts MRC-5; experiment: cytotoxic activity on normal cells; assay type: cell-based; conditions: MRC5, MRC-5 normal fibroblasts, three independent experiments in triplicate, read-out: IC50 Average ± SD
From the text: as §2
The cytotoxic activity of eleven novel compounds was examined against HeLa, K562, MDA-MB-231, and MRC-5.
The cytotoxic activity was examined against HeLa, K562, MDA-MB-231 cells, and normal human lung fibroblasts MRC-5. […] In addition, the effects of the 4k and 4b on the cell cycle were examined.

MDA-MB-231 cells = experiment: cytotoxic activity; assay type: cell-based; conditions: three independent experiments in triplicate, read-out: IC50 Average ± SD
From the text: (§3) All materials and methods used for biological examination (antibacterial, antifungal, anticancer, and α-glucosidase inhibitory activities) and crystal structure determination are presented in the Supplementary Materials, File S1. The cytotoxic activity of eleven novel compounds was examined against HeLa, K562, MDA-MB-231, and MRC-5. The tested compounds exerted concentration-dependent cytotoxic effects on cell lines. […] Compared to compound 4j, 4k has a methyl group in para position of benzoyl fragment; so, probably this structural difference is responsible for better activity and selectivity of compound 4k on HeLa (43.63 ± 1.49 µM) and K562 (39.11 ± 2.90 µM).

HeLa cells [3] = experiment: cytotoxic activity; assay type: cell-based; conditions: for IC50: HeLa, three independent experiments in triplicate, read-out: IC50 Average ± SD
From the text: as §3

K562 cells = experiment: cytotoxic activity; assay type: cell-based; conditions: for IC50: K562, three independent experiments in triplicate, read-out: IC50 Average ± SD
From the text: as §3

HeLa cells [4] = experiment: morphological evaluation of cell death mode, acridine orange/ethidium bromide staining; assay type: cell-based; conditions: 24 h, 2IC50 concentration
Description: as §2
The photomicrographs of control HeLa cells and HeLa cells incubated for 24 h with 2IC50 concentrations of the compounds 4b and 4k and stained with a mixture of acridine orange/ethidium bromide are presented in Figure 5. […] Orange-red-stained shrunken cells with condensed chromatin in later stages of apoptosis were detected as well. […] The proapoptotic effect of compound 4b was to some extent stronger when comparing with effect of compound 4k.
Figure 5 Photomicrographs of acridine orange/ethidium bromide-stained control HeLa cells and HeLa cells incubated with 2IC50 concentrations of compounds 4b and 4k during 24 h (magnification 20×). Representative photomicrographs are shown.

HeLa cells [5] = experiment: cell-cycle phase distribution; assay type: cell-based; conditions: 24 h, IC50 and 2IC50 concentrations, vs untreated control
From the text: as §2
The observed changes in the amounts of treated cells within subG1 and G1 phases of the cell cycle were accompanied with decreased percentages of cells within the S and G2/M phases.
The data shown represent the average ± standard deviation of two independent experiments.

In the case of `COC(=O)C1=C(C)N(C)C(=S)NC1c1ccc(OC(C)=O)c(OC)c1` (stereo not drawn) [4g], the MIC (Penicillium italicum) is reported as 1620 µg/mL (≈ 4.45 mM), the MIC (Aspergillus flavus) is reported as 1620 µg/mL (≈ 4.45 mM) and the MIC (Aspergillus niger) is reported as 1620 µg/mL (≈ 4.45 mM). For the same compound, the MIC (Mucor mucedo) was 1620 µg/mL (≈ 4.45 mM), the MIC [1] was 400 µg/mL (≈ 1.1 mM) and the MIC (Escherichia coli) was 1620 µg/mL (≈ 4.45 mM). It also gave an MIC (Staphylococcus aureus) of 3250 µg/mL (≈ 8.92 mM), an MIC (Klebsiella oxytoca) of 1620 µg/mL (≈ 4.45 mM) and an MIC (Proteus mirabilis) of 810 µg/mL (≈ 2.22 mM). It also gave an MIC (Bacillus subtilis) of 3250 µg/mL (≈ 8.92 mM), an IC50 (α-glucosidase) of 192 ± 5.95 µM and an IC50 [2] of 193 ± 9.59 µM. For the same compound, the IC50 (MDA-MB-231 cells; Homo sapiens) was > 200 µM, the IC50 (HeLa cells [3]; Homo sapiens) was 197 ± 3.55 µM and the IC50 (K562 cells; Homo sapiens) was 153 ± 2.58 µM.

Compound `CCOc1cccc(C2NC(=S)N(C)C(C)=C2C(=O)OC)c1OC(C)=O` (stereo not drawn) [4h] has an MIC (Penicillium italicum) of 1620 µg/mL (≈ 4.28 mM), an MIC (Aspergillus flavus) of 1620 µg/mL (≈ 4.28 mM) and an MIC (Aspergillus niger) of 1620 µg/mL (≈ 4.28 mM). The MIC (Mucor mucedo) was 1620 µg/mL (≈ 4.28 mM), the MIC [1] was 810 µg/mL (≈ 2.14 mM) and the MIC (Escherichia coli) was 3250 µg/mL (≈ 8.59 mM). The MIC (Staphylococcus aureus) was 3250 µg/mL (≈ 8.59 mM), the MIC (Klebsiella oxytoca) was 3250 µg/mL (≈ 8.59 mM) and the MIC (Proteus mirabilis) was 3250 µg/mL (≈ 8.59 mM). The MIC (Bacillus subtilis) was 3250 µg/mL (≈ 8.59 mM), the IC50 (α-glucosidase) was 933 ± 25.2 µM and the IC50 [2] was 77.8 ± 2.57 µM. The IC50 (MDA-MB-231 cells; Homo sapiens) was 114 ± 12.9 µM, the IC50 (HeLa cells [3]; Homo sapiens) was 121 ± 9.96 µM and the IC50 (K562 cells; Homo sapiens) was 79.9 ± 6.73 µM.

In the case of `COC(=O)C1=C(C)N(C)C(=S)NC1c1ccc(OC(=O)c2ccccc2)c(OC)c1` (stereo not drawn) [4j, methyl 4-(4′-benzoyloxy-3′-methoxyphenyl)-1,2,3,4-tetrahydro-1,6-dimethyl-2-thioxopyrimidine-5-carboxylate], the MIC (Penicillium italicum) is reported as 1620 µg/mL (≈ 3.8 mM), the MIC (Aspergillus flavus) is reported as 1620 µg/mL (≈ 3.8 mM) and the MIC (Aspergillus niger) is reported as 1620 µg/mL (≈ 3.8 mM). The MIC (Mucor mucedo) was 1620 µg/mL (≈ 3.8 mM), the MIC [1] was 400 µg/mL (≈ 0.938 mM) and the MIC (Escherichia coli) was 3250 µg/mL (≈ 7.62 mM). It also gave an MIC (Staphylococcus aureus) of 3250 µg/mL (≈ 7.62 mM), an MIC (Klebsiella oxytoca) of 3250 µg/mL (≈ 7.62 mM) and an MIC (Proteus mirabilis) of 1620 µg/mL (≈ 3.8 mM). For the same compound, the MIC (Bacillus subtilis) was 3250 µg/mL (≈ 7.62 mM), the IC50 [2] was 104 ± 8.61 µM and the IC50 (MDA-MB-231 cells; Homo sapiens) was 123 ± 2.19 µM. The IC50 (HeLa cells [3]; Homo sapiens) was 78.1 ± 5.78 µM and the IC50 (K562 cells; Homo sapiens) was 68 ± 6.53 µM.

`COC(=O)C1=C(C)N(C)C(=S)NC1c1ccc(OC(=O)c2ccc(C)cc2)c(OC)c1` (stereo not drawn) [4k] was tested, and the MIC (Penicillium italicum) was 1620 µg/mL (≈ 3.68 mM), the MIC (Aspergillus flavus) was 810 µg/mL (≈ 1.84 mM) and the MIC (Aspergillus niger) was 1620 µg/mL (≈ 3.68 mM). The MIC (Mucor mucedo) was 1620 µg/mL (≈ 3.68 mM), the MIC [1] was 200 µg/mL (≈ 0.454 mM) and the MIC (Escherichia coli) was 3250 µg/mL (≈ 7.38 mM). The MIC (Staphylococcus aureus) was 3250 µg/mL (≈ 7.38 mM), the MIC (Klebsiella oxytoca) was 3250 µg/mL (≈ 7.38 mM) and the MIC (Proteus mirabilis) was 3250 µg/mL (≈ 7.38 mM). For the same compound, the MIC (Bacillus subtilis) was 3250 µg/mL (≈ 7.38 mM), the IC50 (α-glucosidase) was 1080 ± 54.5 µM and the “cell death mode (apoptosis)” value (HeLa cells [4]) was “activate apoptosis”. For the same compound, the “percentage of HeLa cells in the G1 phase” value (HeLa cells [5]) was “pronounced increase”, the “percentage of dead cells within subG1 phase” value (HeLa cells [5]) was “increase” and the “percentages of cells within the S and G2/M phases” value (HeLa cells [5]) was “decreased”. For the same compound, the IC50 [2] was 87.2 ± 7.31 µM, the IC50 (MDA-MB-231 cells; Homo sapiens) was 74.1 ± 1.25 µM and the selectivity coefficient (HeLa cells [3]; HeLa compared with MRC-5 cells) was 2. It also gave an IC50 (HeLa cells [3]; Homo sapiens) of 43.6 µM, an IC50 (K562 cells; Homo sapiens) of 39.1 ± 2.9 µM and a selectivity coefficient (K562 cells; K562 compared with MRC-5 cells) of 2.23.

For `OC(Cn1cncn1)(Cn1cncn1)c1ccc(F)cc1F` [Fluconazole, reference compound], the MIC (Penicillium italicum) was 1000 µg/mL (≈ 3.27 mM), the MIC (Aspergillus flavus) was 1000 µg/mL (≈ 3.27 mM) and the MIC (Aspergillus niger) was 500 µg/mL (≈ 1.63 mM). For the same compound, the MIC (Mucor mucedo) was 1000 µg/mL (≈ 3.27 mM) and the MIC [1] was 250 µg/mL (≈ 0.816 mM).

With `[H]/N=C(/N)N[C@H]1[C@H](O)[C@@H](O)[C@H](O[C@@H]2O[C@@H](C)[C@](O)(C=O)[C@H]2O[C@@H]2O[C@@H](CO)[C@H](O)[C@@H](O)[C@@H]2NC)[C@@H](N/C(N)=N\[H])[C@@H]1O` [Streptomycin, reference compound] the MIC (Escherichia coli) was 62 µg/mL (≈ 0.107 mM), the MIC (Staphylococcus aureus) was 31 µg/mL (≈ 0.0533 mM) and the MIC (Klebsiella oxytoca) was 8 µg/mL (≈ 0.0138 mM). The MIC (Proteus mirabilis) was 62 µg/mL (≈ 0.107 mM) and the MIC (Bacillus subtilis) was 16 µg/mL (≈ 0.0275 mM).

For `N.N.[Cl][Pt][Cl]` [cisPt, reference compound], the IC50 (MDA-MB-231 cells) was 14.7 ± 0.36 µM, the IC50 (HeLa cells [3]) was 4.91 ± 0.74 µM and the IC50 (K562 cells) was 6.89 ± 0.21 µM.
